In test [1] the test system is HPV16 E7 protein in CaSki cells. Put plainly: Cycloheximide chase assay of E7 stability in CaSki cells. It counts as cell-based. The note with it: 3 μM for 24 hrs, then 10 μg/ml cycloheximide, E7 alone 40.32±0.94 mins. The method, then: FIGS. 2A-2C HBX 19818 treatment destabilized the steady-state level of HPV16 E7. FIG. 2A. Immunoblots showing the protein levels of HPV16 E7, endogenous ubiquitin and USP7. CaSki cells were either transfected with expression plasmids pcDNA 3.1 (left panel) or pcDNA:Flag-USP7, treated with 3 μM of HBX 19818. After 24 hr, the cells were treated with 10 μg/ml cycloheximide at different durations, as indicated. As a control, the cells were also treated with 5 μg/ml MG132 (a proteasome inhibitor) for 2 hrs prior to adding cycloheximide. The cells were harvested and subjected to western blotting using the respective specific antibodies as indicated. Beta-actin (β-actin) was included as a loading control. CHX: cycloheximide; KDa: kilodalton. FIG. 2B. The curves showing the level of HPV16 E7 protein when co-overexpressed with USP7 or treated with HBX 19818 at different time points. The stability of HPV16 E7 was analyzed using the one-phase exponential decay function in GraphPad™ Prism 9. Error bars indicate standard error of the mean (SEM). FIG. 2C. […] Data are expressed as mean±SEM. ns: not significant, P>0.05; *: P<0.05.
We next wanted to assess whether HBX 19818 can reverse USP7-mediated deubiquitination of E7. […] The expression levels of Flag-USP7, endogenous ubiquitin, and E7 were detected using anti-Flag-, ubiquitin- and HPV16 E7-specific antibodies, respectively (FIG. 2A). […]

In test [2] the test system is SCC25 (HPV-negative) cancer cells. In words: Wound-healing (migration) assay, SCC25. Format: cell-based, human. The note with it: SCC25, HBX 19818 versus DMSO, 24 hrs. The method, then: The representative images showing the cell migration of (FIG. 5A) CaSki (HPV16-positive) and (FIG. 5C) SCC25 (HPV-negative) cancer cells after scratching. Cells were seeded into 12-well plate and scratched when reached 100% confluence, followed by incubation with DMSO (vehicle control) or HBX 19818 at concentrations indicated for 24 hours. Cell migration was observed and recorded using a time-lapse microscope every 6 hours. The bar chart comparing the relative coverage areas of (FIG. 5B) CaSki and (FIG. 5D) SCC25 with DMSO or HBX 19818 (n=3). Data indicated are mean±SEM. *: P<0.05; **: P<0.01.
We performed a wound-healing assay to ascertain the ability of CaSki and SCC25 cells to migrate under HBX 19818 treatment. Cells were seeded into a 12-well plate and cultured to reach 100% confluency. Cells were then scratched to make artificial wounds on the monolayer of cells and incubated with either DMSO or HBX 19818 at 3 μM or 6 μM. Cells migration was monitored using time-lapse microscopy where images were taken 6-hourly for a duration of 24 hrs.

The test system of test [3] is HPV16 E7 protein in CaSki cells. In words: HPV16 E7 protein level by western blotting in treated CaSki cells. Format: cell-based. From the text:
FIG. 1A. The representative immunoblots showing the level of HPV16 E7 constitutively expressed in CaSki cells upon treatment with inhibitors specific for USP7 (P5091, FT671, GNE-6776 and HBX 19818) and that targeting pan-USPs (PR-619) at the indicated concentrations. DMSO served as a vehicle control treatment. Cells were then collected and lysed, the levels of USP7 and HPV16 E7 proteins were detected using the respective specific antibodies. Beta-actin (β-actin) was included as a loading control. KDa: kilodalton. FIG. 1B. The bar chart showing the relative protein level of HPV16 E7 normalized by β-actin (n=3). Data are expressed as mean±standard error of the mean (SEM); Right panel showing the images at 100× magnification of the morphology of the CaSki cells treated with P5091, FT671, GNE-6776, HBX 19818 and PR-619 at concentrations indicated. FIG. 1C. The immunoblots showing the levels of USP7 and HPV16 E7 proteins in CaSki and C-33A (an HPV-null cervical cancer cell line) upon downregulation of USP7 using siRNA targeting specifically against human USP7. FIG. 1D. The immunoblots showing the protein level of HPV16 E7 treated with different concentrations of HBX 19818. CaSki cells were treated with different concentrations of HBX 19818 or DMSO as indicated. Total cell lysates were subjected to western blotting using USP7, β-actin and HPV16 E7 specific antibodies. FIG. 1E. The bar chart showing the relative protein level of HPV16 E7 treated with different concentrations of HBX 19818 normalized by β-actin (n=3). Data are expressed as mean±SEM. FIG. 1F. The curve chart showing the level of E7 protein with increasing concentrations of HBX 19818 treatment. The percentage of HPV16 E7 protein level was analyzed using the non-linear regression function in GraphPad™ Prism 9. Error bars show standard errors of the mean (SEM). *: P<0.05; […]***: P<0.001.
Firstly, we screened four USP7-specific inhibitors (P5091, FT671. GNE-6776, and HBX 19818) and 1 pan-USPs inhibitor (PR-619) to characterize their inhibitory effect on E7 expression in HPV-containing cancer cells. We treated CaSki (HPV16-positive) cancer cells with P5091 at 5 μM and 10 μM; FT671, GNE-6776 and PR-619 at 3 μM and 15 μM; as well as HBX 19818 at 3 μM and 6 μM. These concentrations were chosen based on the reported IC50 values. After 24-hr treatment, the cells were collected, and total cell lysates were resolved by SDS-PAGE. The expression levels of USP7 and E7 were detected using respective specific antibodies.

pIC50: −log10 of the molar value.

Here are results for 1 substance from patent US20240009182A1, “REPURPOSED COMPOUND AS THERAPEUTIC FOR HPV-ASSOCIATED CANCERS” (The Chinese University of Hong Kong, priority 2022, published 2024).

As for HBX 19818, the “Half-life of E7” value in test [1] is 27.45 ± 0.88 min. The Cell migration ability result in test [2] is “no differences were observed”. For the same substance, the “Level of E7 with increasing concentration” value in test [3] (1.5 μM, 3.0 μM, 6.0 μM and 12.0 μM) was “decreased at a dose-dependent manner”. In addition, the “E7 protein level after inhibitor treatment” value in test [3] (3 μM and 6 μM, 24-hr treatment, triplicate experiments) is on record as “dramatic reduction of E7 protein level”. In test [3] (non-linear regression, read-out: Concentration sufficient to halve the level of E7 protein), the pIC50 is 5.55.
